Results: PubChem BioAssay AID1996
Values after ≈ are worked out from the molar mass of the structure shown.

conditions: buffer; pH 7.4; 200.0 µM

| SMILES | solubility kinetic |
| --- | --- |
| COc1ccc(Nc2nc(-c3ccccc3O)nc3ccccc23)cc1 | < 0.2 µg/mL |
| Cc1cc(/C=N/NC(N)=O)c(C)n1C1CCCCC1 | > 39.4 µg/mL |
| Cn1c(NC(=O)c2ccc(F)cc2)c(-c2ccccn2)c(=O)c2ccccc21 | 6.2 µg/mL (≈ 16.6 µM) |
| COc1ccccc1C(=O)Nc1cccc(C(=O)c2ccccc2)c1 | 3.5 µg/mL (≈ 10.6 µM) |
| N#Cc1ccc(CN2C(=O)NC3(CCCCCC3)C2=O)cc1 | 25.7 µg/mL (≈ 86.4 µM) |
| COc1ccccc1C/C(N)=N/OC(=O)COc1cccc(C)c1C | 8.2 µg/mL (≈ 23.9 µM) |
| FC(F)(F)c1ccc(NCCc2ccccc2)nc1 | 3.7 µg/mL (≈ 13.9 µM) |
| CC1=C(C)CC(C(=O)Nc2nc(C)cs2)C(C(=O)O)C1 (stereo unspecified) | > 44.2 µg/mL |
| CCOc1ccc(C2/C(=C(/O)c3ccc4c(c3)CC(C)O4)C(=O)C(=O)N2CC2CCCO2)cc1 (stereo unspecified) | 61.8 µg/mL (≈ 133 µM) |
| CC12CCC(C(=O)N(CC3CO3)C1=O)C2(C)C (stereo unspecified) | > 35.6 µg/mL |
| O=C1CN(C(=O)CNCc2ccccc2)c2ccccc2N1 | 33.9 µg/mL (≈ 115 µM) |
| O=C(OCC(=O)c1ccc[nH]1)c1ccc(C(F)(F)F)cc1 | 6.2 µg/mL (≈ 20.9 µM) |
| CCCc1cc(C(=O)Nc2cc(C)ccc2O)no1 | 1.2 µg/mL (≈ 4.61 µM) |
| COc1cc(N)c(Cl)cc1C(=O)OCC(=O)N1c2ccccc2NC(=O)C1(C)C | 5.5 µg/mL (≈ 13.2 µM) |
| CCN(C(=O)N1CCOCC1)c1ccccc1 | 34.7 µg/mL (≈ 148 µM) |
| O=C(CSc1nc2ccc([N+](=O)[O-])cc2s1)NCC1CCCO1 (stereo unspecified) | 50.6 µg/mL (≈ 143 µM) |
| CCCCOc1ccc(CC(=O)NO)cc1 | > 33.5 µg/mL |
| Cc1nc2sc(C(N)=O)c(N)c2c(C)c1CC(=O)c1ccccc1 | 1.7 µg/mL (≈ 5.01 µM) |
| O=C(NCCc1ccc(F)cc1)c1cc2ccccc2oc1=O | < 0.7 µg/mL |
| Cc1ccc(S(=O)(=O)N2CCN(C(=O)COC(=O)c3cncc(Br)c3)CC2)c(C)c1 | 5.3 µg/mL (≈ 10.7 µM) |
| COc1ccc(-c2cc(-c3ccco3)[nH]c(=O)c2C#N)cc1 | 5.3 µg/mL (≈ 18.1 µM) |
| CCOC(=O)CNC(=O)C1c2ccccc2Oc2ccccc21 | 1.9 µg/mL (≈ 6.1 µM) |

| SMILES | solubility kinetic |
| --- | --- |
| CC(C)CNC(=O)COC(=O)Cc1ccc(Cl)cc1 | 36.1 µg/mL (≈ 127 µM) |
| Cc1ccc(C)c(NC(=O)NCCN2CCCCC2)c1 | 35.6 µg/mL (≈ 129 µM) |
| Cc1ccc(-c2c[n+](Cc3ccc(Cl)cc3)c3n2CCC3)cc1.[Cl-] | > 53.9 µg/mL |
| O=C1c2ccccc2C(=O)N1CCn1ccnc1 | > 36.2 µg/mL |
| O=C(CCNC(=O)c1ccco1)Nc1ccc(OC(F)(F)F)cc1 | 19.7 µg/mL (≈ 57.6 µM) |
| CC(=O)c1cn(C2OC(CO)C3OC(C)(C)OC32)c(=O)n(C)c1=O (stereo unspecified) | 48.9 µg/mL (≈ 144 µM) |
| NC(=O)c1c(NC(=O)c2cccnc2)sc2c1CCCCC2 | 6 µg/mL (≈ 19 µM) |
| Cc1ccc(Nc2ncnc(N)n2)cc1 | 29.5 µg/mL (≈ 147 µM) |
| CCCCN1C(C)=CC(=C2C(=O)c3ccccc3C2=O)C=C1C | < 0.7 µg/mL |
| COCCN(CCOc1cc(C)cc(C)c1)Cc1ccc(Cl)cc1 | 5.6 µg/mL (≈ 16.1 µM) |
| COc1cc(C)c(NC(=O)C(=S)NCc2ccccc2)cc1C | < 0.4 µg/mL |
| CN(C)c1nc2c(N)ncnc2n1[C@H]1O[C@@H](CO)[C@H](O)[C@@H]1O | > 46.5 µg/mL |
| NC(=O)c1ccccc1NC(=O)CN1CCCCCC1 | > 41.3 µg/mL |
| COc1ccc(C)cc1Nc1nc(-c2ccccc2O)nc2ccccc12 | < 0.3 µg/mL |
| Cl.O=S(=O)(NCCN1CCN(S(=O)(=O)c2ccccc2F)CC1)c1ccccc1F | > 72.3 µg/mL |
| CCN(CC)C(=O)c1ccccc1NC(=O)c1ccccc1C | > 46.6 µg/mL |
| Cc1c(C)c(C)c(S(=O)(=O)NCCc2ccccn2)c(C)c1C | 40.3 µg/mL (≈ 121 µM) |
| CCOC(=O)c1c(-c2cccc(N)c2)cn2ccccc12 | 35.1 µg/mL (≈ 125 µM) |
| CC(=O)c1ccccc1NC(=O)COC(=O)/C=C/c1ccc(C)o1 | < 0.7 µg/mL |
| O=C(NCCNC(=O)c1ccc(F)cc1)c1ccc(F)cc1 | 12.9 µg/mL (≈ 42.4 µM) |
| Cc1ccc(-n2nc(-c3ccco3)cc2C(=O)O)cc1 | > 40.2 µg/mL |
| c1ccc(-c2nc3ccccc3[nH]2)cc1 | 21.9 µg/mL (≈ 113 µM) |

| SMILES | solubility kinetic |
| --- | --- |
| O=C(Nc1ccc2c(c1)OCO2)Nc1ccccc1F | 2.7 µg/mL (≈ 9.84 µM) |
| CC(=O)Nc1ccc(Nc2ccc([N+](=O)[O-])cn2)cc1 | 15.8 µg/mL (≈ 58 µM) |
| Cc1cc(C)nc(SC/C=C/c2ccccc2)n1.Cl | 5.4 µg/mL |
| Cc1cccc(C)c1NC(=O)C1CSC2(C)CCC(=O)N12 (stereo unspecified) | > 45.7 µg/mL |
| COc1ccccc1NC(=O)Nc1ccc2c(c1)CCC2 | < 0.3 µg/mL |
| O=C(Cc1c(Cl)cccc1Cl)NC1CC1 | > 36.6 µg/mL |
| CC(C)(C)c1ccc(NC(=S)NCc2cccnc2)cc1 | 40.8 µg/mL (≈ 136 µM) |
| CCOc1cccc(OCCCCn2cnc3ccccc3c2=O)c1 | 3.4 µg/mL (≈ 10 µM) |
| O=C(NCCC1=CCCCC1)c1cc(-c2ccncc2)nc2ccccc12 | 1.2 µg/mL (≈ 3.36 µM) |
| Cc1ccc(NC(=O)NC(=O)c2ccccc2)cc1F | < 0.3 µg/mL |
| NC(=NCCc1ccc(Cl)cc1)NS(=O)(=O)c1ccccc1 | 47.5 µg/mL (≈ 141 µM) |
| CSc1ncc(C(=O)Nc2ccc(Cl)cc2)c(C)n1 | 12.7 µg/mL (≈ 43.2 µM) |
| O=C(OCN1C(=O)C(=O)c2ccccc21)c1ccc(Cl)cc1 | 44 µg/mL (≈ 139 µM) |
| Cl.Oc1ccc(Nc2ncnc3ccccc23)cc1 | 13.7 µg/mL |
| O=C1CN(C(=O)COC(=O)CCC(=O)c2ccc(Cl)cc2)c2ccccc2N1 | 57.2 µg/mL (≈ 143 µM) |
| CCN1/C(=C2\OC(=S)N(C)C2=O)C=Cc2ccccc21 | 0.3 µg/mL (≈ 1.05 µM) |
| Cc1cccc2c(CCN)c[nH]c12.Cl | > 31.6 µg/mL |
| CCc1cc(=O)oc2cc(C)cc(OCC(=O)NC3CC3)c12 | 25 µg/mL (≈ 83 µM) |
| O=C(Cn1ccnc1[N+](=O)[O-])NCc1ccccc1 | > 39 µg/mL |
| Nc1cnn(C2OC(CO)C(O)C2O)c(=O)n1 (stereo unspecified) | > 36.6 µg/mL |
| O=C(CCNc1ccccc1)c1cccc([N+](=O)[O-])c1 | 32.7 µg/mL (≈ 121 µM) |
| CC1CC(=O)Nc2ccccc2N1C(=O)CSc1ccc2ccccc2n1 (stereo unspecified) | > 56.6 µg/mL |

| SMILES | solubility kinetic |
| --- | --- |
| Cn1c(O)c(/C=N/NC(=O)c2ccncc2)c(=O)[nH]c1=S | > 45.8 µg/mL |
| COc1ccc(CCNC(=O)C2(c3ccccc3)CC2)cc1 | 43.8 µg/mL (≈ 148 µM) |
| O=C(NC1CC2CCCC(C1)N2Cc1ccc(F)cc1)c1ccc(F)cc1 (stereo unspecified) | > 55.6 µg/mL |
| NC(=O)c1ccc(NC(=O)CCN2C(=O)c3ccccc3C2=O)cc1 | 10.6 µg/mL (≈ 31.4 µM) |
| O=C(Nc1cccc(Cl)c1Cl)C1CCCO1 (stereo unspecified) | 26.7 µg/mL (≈ 103 µM) |
| Cc1cc(C)c(S(=O)(=O)N2CCc3ccccc32)c(C)c1 | < 0.6 µg/mL |
| C=CCN1C(=O)c2ccc(C(=O)Nc3ccccn3)cc2C1=O | 8 µg/mL (≈ 26 µM) |
| CCn1c(CNC(=O)C2CCCCC2)cc2ccccc21 | 0.4 µg/mL (≈ 1.41 µM) |
| COc1ccc(NC(=S)NC(=O)/C=C/c2ccco2)c(OC)c1 | < 0.4 µg/mL |
| CCN(c1ccccc1)S(=O)(=O)c1cccc(C(=O)OCC(=O)Nc2ccc(NC(C)=O)cc2)c1 | 2.6 µg/mL (≈ 5.25 µM) |
| CN1C(=O)C(=O)N(c2cccc(C(F)(F)F)c2)C1=O | 39.9 µg/mL (≈ 147 µM) |
| O=C(Nc1ccc2ccccc2n1)C1CCCCC1 | 26.6 µg/mL (≈ 105 µM) |
| Cc1ccnc2nc(C(=O)OCC(=O)c3ccccc3)nn12 | > 44.4 µg/mL |
| Cc1cc(/C=C\c2ccccc2)nc2ccccc12 | < 0.5 µg/mL |
| CN1C(=O)CSC1=Nc1ccc(F)cc1 | 28.7 µg/mL (≈ 128 µM) |
| CN1CCN(C(=O)c2ccc(-c3ccc(Br)cc3)o2)CC1 | > 52.4 µg/mL |
| Cc1ccc2oc(=O)n(CC(=O)OCCC(C)C)c2c1 | 16 µg/mL (≈ 57.7 µM) |
| Cc1ccc(NC(=O)c2ccc(COc3ccccc3)o2)nc1 | 16 µg/mL (≈ 51.9 µM) |
| S=C(NCc1ccncc1)Nc1cc(Cl)cc(Cl)c1 | 5.6 µg/mL (≈ 17.9 µM) |
| C/C=C/C=C/C(=O)OCC(=O)Nc1ccc(Cl)cc1 | 6.2 µg/mL (≈ 22.2 µM) |
